Experimental data taken from US9597407B2, “Targeted antimicrobial moieties” (C3 Jian, Inc., priority 2009, dated 2017).
Bridge positions count the residues as written; N and C are the ends. Square brackets hold non-standard residues; d marks the D form. Ends that are not written are not given here. Peptide text beside a SMILES is read from it. I, II: the chains in the order shown. Aoc = NCCCCCCCC(=O)O

Columns and labels:
BHK-21 fibroblasts = experiment: Cytotoxicity, Promega CellTiterGlo assay; type: cell-based, hamster; settings: BHK cells
Method: Streptococcus oralis ATCC 10557, Streptococcus gordonii (Challis), Streptococcus sanguinis (NY101), Streptococcus mitis ATCC 903, Streptococcus salivarius ATCC 13419 and S. mutans wild-type UA140 and JM11 (spectinomycin-resistant) strains were grown in Todd-Hewitt (TH) broth 37° C. in an anaerobic atmosphere of 80% N2, 10% CO2, and 10% H2. BHK-21 (ATCC CRL-10) fibroblasts were propagated in DMEM with 10% FBS, 1 mM sodium pyruvate, 100 units/mL penicillin G, and 100 μg/mL streptomycin at 37° C. with 5% CO2. Cells were detached with 0.25% trypsin and subcultured as recommended by the supplier.
The effect of RB and C16-RB on human fibroblasts was ascertained by utilizing the Promega CellTiterGlo assay, as described by the manufacturer. Briefly, fibroblasts were grown to confluence, detached, and seeded to ˜5,000 cells per well in a 96-well opaque walled, clear bottom 96-well plate (Nunc International). For long-term dark toxicity, cells were allowed to attach to for 18 h before the culture medium was replaced with medium plus serially-diluted RB or C16-RB (200 μM to 390 nM) or medium alone. After 18-24 h, equal volume Cell Titer Glo reagent was added to each well and mixed. Luciferace activity was then quantified to measure cell viability (Varian Fluorometer in Biolumenescence mode). […] After exposure, cultures were disrupted with Cell Titer Glo and luciferase activity quantitated as above.

[1] = system: S. mutans JM11 and non-cariogenic oral streptococci in mixed biofilms; experiment: Selective photodynamic assay against multispecies biofilms; type: cell-based, Streptococcus mutans; settings: mixed biofilm, blue light, plus potassium gluconate
Method: To gauge C16-RB selectivity for S. mutans, similar assays were conducted against multispecies biofilms. Mixed biofilms were seeded by diluting (1:5000) a mixture of equal parts S. oralis, S. gordonii, S. mitis, S. sanguinis, S. salivarius, and S. mutans JM11 (made from overnight cultures) into TH with 1% sucrose, 1% glucose, and 1% mannose. Biofilms were incubated and treated as described above with the addition of vitamin C or potassium gluconate. After the addition of agent and 5 min incubation, biofilms were washed 1× with 1×PBS prior to light exposure. After PDT and biofilm disruption, survivors were plated on TH, and TH supplemented with 800 μg/mL spectinomycin, which allowed for quantitation of surviving total oral streptococci and surviving S. mutans, respectively.
C16-RB was next evaluated for selectivity in mixed cultures containing S. mutans and non-cariogenic oral streptococci that compete for the same niche on the tooth surface. We utilized mixed biofilms of S. mutans transformed with spectinomycin resistance (strain JM11, Merritt, et al., 2005), plus S. oxalis, S. gordonii, S. mitis, S. sanguinis, and S. salivarius. The mixed cultures were grown 24 and then treated with RB or C16-RB as indicated, plus potassium gluconate to minimize killing of untargeted bacteria by reducing the superoxide-producing activity of the free C16-RB not bound to S. mutans. […]

S. mutans UA140 biofilms = experiment: Photodynamic antimicrobial assay against single-species biofilms; type: cell-based, Streptococcus mutans; settings: 5 μM, no light
Method: To evaluate C16-RB against monoculture biofilms, S. mutans UA140 was grown overnight in TH prior to inoculation for biofilm formation. For biofilms, 1:5000 dilution of overnight culture was made into TH with 1% sucrose in 2 mL centrifuge tubes (200 μL volume) and grown 24 h under anaerobic conditions. After incubation, biofilms were treated for 5 min with 5 or 25 μM C16-RB or 5 μM RB in 1×PBS, or PBS alone, followed by removal of supernatant and exposure to 5 min blue light (emission 400-550 nm, power 400 mW/cm^2) from an Astralis 7 (Ivoclar Vivodent, Austria) handheld LED commonly used as a dental curing light. The light source was suspended 4 cm from the tube bottom (even with the mouth of the tube). A duplicate set of samples were left covered to serve as dark controls. After treatment, biofilms were mechanically disrupted and plated to determine cfu/mL.
After synthesis, the basic photosensitization potential of C16-RB was assessed by challenging mature single-species S. mutans biofilms (grown 24 h) with C16-RB or unmodified RB, followed by blue emission from a dental curing light.

S. epidermidis [2] = experiment: Post-antibiotic effect assay, monoculture growth after 10 min treatment; type: cell-based, Staphylococcus epidermidis; settings: peptide 10 min, then fresh medium
Method: (§1) The activity and selectivity of MH-STAMPs after a 10 min incubation was determined by growth retardation experiments against targeted and untargeted bacteria in monocultures, as described previously (Id.). Cells from overnight cultures were diluted to ˜5×10^6 cfu/mL in MH (or TH with 1% sucrose for S. mutans), normalized by OD600 0.05-0.1 and seeded to 96-well plates. Cultures were then grown under the appropriate conditions for 2 h (3 h for S. mutans) prior to the addition of peptides for 10 min. Plates were then centrifuged at 3000×g for 5 min, the supernatants discarded, fresh medium returned (MH or TH without sucrose for S. mutans), and incubation resumed. Bacterial growth after treatment was then monitored over time by OD600.
(§2) MH-STAMP antimicrobial kinetics was ascertained utilizing a variation of the classical post-antibiotic effect assay, which measures the ability of an agent to affect an organism's growth after a short exposure period. Monocultures of MH-STAMP-targeted and untargeted organisms were exposed to M8(KH)-20, M8(BL)-20, BL(KH)-20, or unmodified BD2.20, then allowed to recover. […] Furthermore, replacement of the targeting region with a non-binding peptide abolishes specific activity.

S. mutans [3] = experiment: Microbial population shift assay, mixed planktonic culture; type: cell-based, Streptococcus mutans; settings: 10 μM peptide, 24 h, detection limit 200 cfu/mL
Method: (§3) Peptide (10 μM) or mock-treatment (1×PBS) was then added and samples were incubated at 37° C. for 24 h under anaerobic conditions (80% N2, 15% CO2, 5% H2). […] Plates were then incubated 37° C. under aerobic conditions (TH plates were incubated anaerobically) and colonies counted after 24 h to determine survivors. […] Gram stains and direct microscopic observation (from select isolated colonies) were undertaken to confirm species identity (data not shown). The detection limit of the assay was 200 cfu/mL.
(§4) We hypothesized that potential MH-STAMP dual-functionality could affect a particular set of bacteria within a mixed population, thereby promoting the outgrowth of non-targeted organisms and “shifting” the constituent makeup. To examine this possibility, defined mixed populations of planktonic cells were treated continuously and the make-up of the community examined after 24 h.

S. mutans [4] = experiment: Post-antibiotic effect assay, monoculture growth after 10 min treatment; type: cell-based, Streptococcus mutans; settings: peptide 10 min, then fresh medium
Method: as §1, §2

E. coli [5] = experiment: as above; type: cell-based, Escherichia coli; settings: peptide 10 min, then fresh medium
Method: as §1, §2

P. aeruginosa [6] = experiment: as above; type: cell-based, Pseudomonas aeruginosa; settings: peptide 10 min, then fresh medium
Method: as §1, §2

P. aeruginosa [7] = experiment: Microbial population shift assay, mixed planktonic culture; type: cell-based, Pseudomonas aeruginosa; settings: 10 μM peptide, 24 h, detection limit 200 cfu/mL
Method: as §3, §4

E. coli [8] = experiment: as above; type: cell-based, Escherichia coli; settings: 10 μM peptide, 24 h, detection limit 200 cfu/mL
Method: as §3, §4

S. aureus = experiment: Post-antibiotic effect assay, monoculture growth after 10 min treatment; type: cell-based, Staphylococcus aureus; settings: peptide 10 min, then fresh medium
Method: as §1, §2

S. epidermidis [9] = experiment: Microbial population shift assay, mixed planktonic culture; type: cell-based, Staphylococcus epidermidis; settings: 10 μM peptide, 24 h, detection limit 200 cfu/mL
Method: as §3, §4

S. mutans [10] = experiment: STAMP activity in formulations (buffer/salt dependence); type: cell-based, Streptococcus mutans
Excerpt: During the course of evaluating STAMPs, antimicrobial peptides (AMPs), and binding peptides for desired activity, it was discovered that certain formulations can attenuate or promote peptide activity, as compared to activity levels in a default buffer system (1×PBS). In some cases, 1×PBS may provide the best level of activity. Below are a number of formulations that alter, or may alter, peptide or STAMP activity. For complex buffer systems, assume the base solvent is water unless otherwise stated.
It was a surprising discovery that certain anti-S. mutans STAMPs required a salt in the formulation (e.g., PBS) for optimum activity. […] Suitable PBS formulations ranged from 0.5×PBS to about 2.5×PBS with an activity optimum at about 1×PBS. Similar results are believed to obtain for other anti-S. mutans STAMPS as well as a number of other STAMPs. In certain embodiments STAMP stability in solution was improved by inclusion of fluoride in mouthrinse.

Molecule | surviving S. mutans cfu/mL (S. mutans [3]) | S. mutans growth (OD600) after treatment (S. mutans [4]) | surviving P. aeruginosa cfu/mL (P. aeruginosa [7]) | surviving E. coli cfu/mL (E. coli [8]) | surviving S. epidermidis cfu/mL (S. epidermidis [9]) | other results
O=C1OC2(c3cc(I)c(O)c(I)c3Oc3c2cc(I)c(O)c3I)c2c(Cl)c(Cl)c(Cl)c(Cl)c21 [RB, rose bengal] |  |  |  |  |  | IC50 (BHK-21 fibroblasts; 5 min dark): > 100 µM; photo-associated (light-dependent) toxicity (BHK-21 fibroblasts; blue light exposure): light-dependent toxicity was observed; ratio of surviving S. mutans:non-cariogenic streptococci cfu [1]: ~1; decrease in cfu/mL, dark controls (S. mutans UA140 biofilms): appreciable decreases in cfu/mL were not observed
CC[C@H](C)[C@H](NC(=O)[C@@H](N)Cc1ccccc1)C(=O)N[C@@H](CCCNC(=N)N)C(=O)N[C@@H](CCCCN)C(=O)N[C@@H](Cc1ccccc1)C(=O)N[C@@H](CC(C)C)C(=O)N[C@@H](CCCCN)C(=O)N[C@@H](CCCCN)C(=O)N[C@@H](Cc1c[nH]c2ccccc12)C(=O)N[C@@H](CC(C)C)C(=O)N[C@@H](CC(C)C)C(N)=O [BD2.20] (H-FIRKFLKKWLL-NH2; N-terminus assumed) | significant loss of recoverable cfu/mL | robust antimicrobial activity | significant loss of recoverable cfu/mL | significant loss of recoverable cfu/mL | significant loss of recoverable cfu/mL | S. epidermidis growth (OD600) after treatment (S. epidermidis [2]): inhibited; E. coli growth (OD600) after treatment (E. coli [5]): inhibited; P. aeruginosa growth (OD600) after treatment (P. aeruginosa [6]): robust antimicrobial activity; S. aureus growth (OD600) after treatment (S. aureus): inhibited
CC[C@H](C)[C@H](NC(=O)[C@H](Cc1ccccc1)NC(=O)CCCCCCCNC(=O)[C@H](CCCCNC(=O)CNC(=O)CNC(=O)CNC(=O)[C@H](Cc1c[nH]cn1)NC(=O)[C@H](CCCCN)NC(=O)[C@H](CCCNC(=N)N)NC(=O)[C@H](Cc1c[nH]cn1)NC(=O)[C@H](CCCCN)NC(=O)[C@H](CCCNC(=N)N)NC(=O)[C@H](Cc1c[nH]cn1)NC(=O)[C@H](CCCCN)NC(=O)[C@H](CCCNC(=N)N)NC(=O)[C@H](Cc1c[nH]cn1)NC(=O)[C@H](CCCCN)NC(=O)[C@@H](N)CCCCN)NC(=O)CNC(=O)CNC(=O)CNC(=O)[C@H](C)NC(=O)[C@H](CCC(=O)O)NC(=O)[C@H](CC(N)=O)NC(=O)[C@H](C)NC(=O)[C@H](C)NC(=O)[C@H](CC(=O)O)NC(C)=O)C(=O)N[C@@H](CCCNC(=N)N)C(=O)N[C@@H](CCCCN)C(=O)N[C@@H](Cc1ccccc1)C(=O)N[C@@H](CC(C)C)C(=O)N[C@@H](CCCCN)C(=O)N[C@@H](CCCCN)C(=O)N[C@@H](Cc1c[nH]c2ccccc12)C(=O)N[C@@H](CC(C)C)C(=O)N[C@@H](CC(C)C)C(N)=O [BL(KH)-20] (I: Ac-DAANEAGGGK[Aoc]FIRKFLKKWLL-NH2 / II: H-KKHRKHRKHRKHGGG; amide I:10-II:C) | higher than input cfu/mL | not altered | not observed | unchanged numbers | unchanged numbers | 
TFFRLFNRSFTQALGKGGGKNLRIIRKGIHIIKKY* (TFFRLFNRSFTQALGKGGGKNLRIIRKGIHIIKKY-NH2) [Peptide C16G2, anti-S. mutans STAMP] |  |  |  |  |  | activity optimum (PBS strength) (S. mutans [10]; PBS formulations 0.5×PBS to about 2.5×PBS): about 1 ×PBS; activity (S. mutans [10]; water-based salt-free buffers and nanoemulsions): substantially inactive
